Tests used:
Assay in all cases: KINOMEscan kinase binding assay (Eurofins/DiscoveRx), % Ctrl
[1] = target: T1, kinases (Homo sapiens, UniProt P00519, M351T); conditions: 1 μM; target ABL1(M351T)-phosphorylated
T1 construct: purchased Eurofins/DiscoveRx; host or cells: E. coli BL21-derived host (T7 phage display) for most kinases; HEK-293 for the rest
Summary of the method: (§1)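 Competition binding, 1 h RT: phage-tagged or HEK-293-expressed DNA-tagged kinase + immobilized ligand + compound. Eluate kinase by qPCR. % Ctrl = (test − positive ctrl)/(negative ctrl − positive ctrl) × 100; lower means stronger binding.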

[2] = target: T2, kinases (Homo sapiens, UniProt P00533); conditions: 1 μM; target EGFR
T2 construct: purchased Eurofins/DiscoveRx; host or cells: E. coli BL21-derived host (T7 phage display) for most kinases; HEK-293 for the rest
T2 sequence (P00533 25-1210): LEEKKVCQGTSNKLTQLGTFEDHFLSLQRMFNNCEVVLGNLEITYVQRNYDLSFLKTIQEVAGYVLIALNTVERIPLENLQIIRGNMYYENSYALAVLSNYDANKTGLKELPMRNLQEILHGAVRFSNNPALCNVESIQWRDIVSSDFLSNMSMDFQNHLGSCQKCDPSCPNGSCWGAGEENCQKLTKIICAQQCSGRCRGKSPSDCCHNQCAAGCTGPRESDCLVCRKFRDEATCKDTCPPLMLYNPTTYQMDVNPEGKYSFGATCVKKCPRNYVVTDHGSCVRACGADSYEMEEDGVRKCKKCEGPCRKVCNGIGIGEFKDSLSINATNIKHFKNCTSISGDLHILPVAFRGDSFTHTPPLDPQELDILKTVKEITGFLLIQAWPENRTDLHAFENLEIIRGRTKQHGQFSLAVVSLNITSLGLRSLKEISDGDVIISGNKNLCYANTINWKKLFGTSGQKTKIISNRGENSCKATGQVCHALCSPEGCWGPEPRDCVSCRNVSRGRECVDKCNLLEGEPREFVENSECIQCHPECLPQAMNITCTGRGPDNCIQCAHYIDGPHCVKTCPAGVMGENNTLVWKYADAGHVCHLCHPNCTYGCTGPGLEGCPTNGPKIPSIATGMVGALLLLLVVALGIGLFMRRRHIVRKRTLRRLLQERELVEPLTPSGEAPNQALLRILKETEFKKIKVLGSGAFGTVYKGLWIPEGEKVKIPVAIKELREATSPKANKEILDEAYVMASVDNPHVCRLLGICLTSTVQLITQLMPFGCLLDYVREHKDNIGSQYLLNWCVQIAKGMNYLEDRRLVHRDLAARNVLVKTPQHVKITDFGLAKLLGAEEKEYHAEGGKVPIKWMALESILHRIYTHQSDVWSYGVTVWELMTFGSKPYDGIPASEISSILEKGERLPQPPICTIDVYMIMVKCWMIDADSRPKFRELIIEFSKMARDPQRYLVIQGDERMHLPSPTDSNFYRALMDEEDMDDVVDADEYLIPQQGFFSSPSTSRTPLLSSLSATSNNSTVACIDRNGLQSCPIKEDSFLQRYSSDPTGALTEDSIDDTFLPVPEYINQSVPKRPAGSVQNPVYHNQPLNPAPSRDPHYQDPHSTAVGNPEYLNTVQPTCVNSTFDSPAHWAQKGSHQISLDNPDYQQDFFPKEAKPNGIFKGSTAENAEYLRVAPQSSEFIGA
Summary of the method: as §1

[3] = target: T3, kinases (Homo sapiens, UniProt P07949); conditions: 1 μM; target RET
T3 construct: purchased Eurofins/DiscoveRx; host or cells: E. coli BL21-derived host (T7 phage display) for most kinases; HEK-293 for the rest
T3 sequence (P07949 29-1114): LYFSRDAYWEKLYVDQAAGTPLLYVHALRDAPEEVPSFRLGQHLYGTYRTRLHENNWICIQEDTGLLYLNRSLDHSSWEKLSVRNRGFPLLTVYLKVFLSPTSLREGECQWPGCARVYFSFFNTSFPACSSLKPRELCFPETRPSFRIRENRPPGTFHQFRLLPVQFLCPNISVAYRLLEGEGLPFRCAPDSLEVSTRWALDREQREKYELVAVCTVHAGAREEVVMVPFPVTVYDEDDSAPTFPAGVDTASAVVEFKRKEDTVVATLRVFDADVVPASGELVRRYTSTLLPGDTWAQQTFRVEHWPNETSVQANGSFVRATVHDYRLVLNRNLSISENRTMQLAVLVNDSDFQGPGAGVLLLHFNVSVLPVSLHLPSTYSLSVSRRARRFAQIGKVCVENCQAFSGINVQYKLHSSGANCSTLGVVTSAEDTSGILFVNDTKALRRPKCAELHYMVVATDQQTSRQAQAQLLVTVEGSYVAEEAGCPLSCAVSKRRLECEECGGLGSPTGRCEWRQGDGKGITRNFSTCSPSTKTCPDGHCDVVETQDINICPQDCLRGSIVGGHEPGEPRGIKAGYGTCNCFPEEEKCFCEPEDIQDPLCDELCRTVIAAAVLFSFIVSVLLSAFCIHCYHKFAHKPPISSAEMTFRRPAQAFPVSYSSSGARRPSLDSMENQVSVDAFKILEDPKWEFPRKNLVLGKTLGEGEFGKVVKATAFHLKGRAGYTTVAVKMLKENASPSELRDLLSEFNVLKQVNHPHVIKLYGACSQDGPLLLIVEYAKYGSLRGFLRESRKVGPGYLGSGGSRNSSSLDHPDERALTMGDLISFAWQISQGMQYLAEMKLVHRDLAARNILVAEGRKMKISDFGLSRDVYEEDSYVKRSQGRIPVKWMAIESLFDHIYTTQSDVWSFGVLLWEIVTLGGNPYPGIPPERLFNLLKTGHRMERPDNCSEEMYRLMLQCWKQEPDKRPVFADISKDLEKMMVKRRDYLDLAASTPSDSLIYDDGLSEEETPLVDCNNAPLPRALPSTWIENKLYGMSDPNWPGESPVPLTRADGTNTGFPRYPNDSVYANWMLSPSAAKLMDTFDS
Summary of the method: as §1

[4] = target: T4, kinases (Homo sapiens, UniProt P07949, M918T); conditions: 1 μM; target RET(M918T)
T4 construct: purchased Eurofins/DiscoveRx; host or cells: E. coli BL21-derived host (T7 phage display) for most kinases; HEK-293 for the rest
T4 sequence (P07949 29-1114 M918T): as the sequence (P07949 29-1114) above, with M890T counted along it
Summary of the method: as §1

[5] = target: T5, kinases (Homo sapiens, UniProt P10721, A829P); conditions: 1 μM; target KIT(A829P)
T5 construct: purchased Eurofins/DiscoveRx; host or cells: E. coli BL21-derived host (T7 phage display) for most kinases; HEK-293 for the rest
T5 sequence (P10721 26-976 A829P): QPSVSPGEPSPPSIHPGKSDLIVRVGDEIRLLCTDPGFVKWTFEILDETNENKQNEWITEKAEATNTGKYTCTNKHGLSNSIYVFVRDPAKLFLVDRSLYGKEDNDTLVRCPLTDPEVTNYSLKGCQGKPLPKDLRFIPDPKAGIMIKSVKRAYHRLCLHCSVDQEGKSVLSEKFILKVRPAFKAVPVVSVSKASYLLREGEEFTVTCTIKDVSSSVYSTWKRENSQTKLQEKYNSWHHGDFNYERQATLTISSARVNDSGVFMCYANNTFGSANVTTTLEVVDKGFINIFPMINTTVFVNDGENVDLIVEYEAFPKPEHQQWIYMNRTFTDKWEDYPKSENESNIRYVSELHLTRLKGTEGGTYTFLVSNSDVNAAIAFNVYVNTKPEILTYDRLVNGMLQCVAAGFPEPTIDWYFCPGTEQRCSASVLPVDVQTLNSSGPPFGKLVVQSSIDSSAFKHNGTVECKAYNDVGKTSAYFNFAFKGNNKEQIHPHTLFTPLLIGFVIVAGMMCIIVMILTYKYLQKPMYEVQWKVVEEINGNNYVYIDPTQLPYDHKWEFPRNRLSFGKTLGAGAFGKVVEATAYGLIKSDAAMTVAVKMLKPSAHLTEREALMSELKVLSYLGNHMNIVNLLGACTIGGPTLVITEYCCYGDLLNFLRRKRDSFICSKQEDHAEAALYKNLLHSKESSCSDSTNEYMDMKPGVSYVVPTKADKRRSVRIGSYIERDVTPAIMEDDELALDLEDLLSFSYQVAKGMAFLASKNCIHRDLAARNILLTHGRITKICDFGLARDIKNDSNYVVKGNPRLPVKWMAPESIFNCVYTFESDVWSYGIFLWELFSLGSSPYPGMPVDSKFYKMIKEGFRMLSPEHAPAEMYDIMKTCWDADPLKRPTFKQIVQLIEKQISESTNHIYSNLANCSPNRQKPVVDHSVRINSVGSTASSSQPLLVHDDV
Summary of the method: as §1

[6] = target: T6, kinases (Homo sapiens, UniProt P10721, L576P); conditions: 1 μM; target KIT(L576P)
T6 construct: purchased Eurofins/DiscoveRx; host or cells: E. coli BL21-derived host (T7 phage display) for most kinases; HEK-293 for the rest
T6 sequence (P10721 26-976 L576P): as the sequence (P10721 26-976 A829P) above, with L551P, P804A counted along it
Summary of the method: as §1

[7] = target: T7, kinases (Homo sapiens, UniProt P10721, V559D); conditions: 1 μM; target KIT(V559D)
T7 construct: purchased Eurofins/DiscoveRx; host or cells: E. coli BL21-derived host (T7 phage display) for most kinases; HEK-293 for the rest
T7 sequence (P10721 26-976 V559D): as the sequence (P10721 26-976 A829P) above, with V534D, P804A counted along it
Summary of the method: as §1

[8] = target: T8, kinases (Homo sapiens, UniProt P36888, D835H); conditions: 1 μM; target FLT3(D835H)
T8 construct: purchased Eurofins/DiscoveRx; host or cells: E. coli BL21-derived host (T7 phage display) for most kinases; HEK-293 for the rest
T8 sequence (P36888 27-993 D835H): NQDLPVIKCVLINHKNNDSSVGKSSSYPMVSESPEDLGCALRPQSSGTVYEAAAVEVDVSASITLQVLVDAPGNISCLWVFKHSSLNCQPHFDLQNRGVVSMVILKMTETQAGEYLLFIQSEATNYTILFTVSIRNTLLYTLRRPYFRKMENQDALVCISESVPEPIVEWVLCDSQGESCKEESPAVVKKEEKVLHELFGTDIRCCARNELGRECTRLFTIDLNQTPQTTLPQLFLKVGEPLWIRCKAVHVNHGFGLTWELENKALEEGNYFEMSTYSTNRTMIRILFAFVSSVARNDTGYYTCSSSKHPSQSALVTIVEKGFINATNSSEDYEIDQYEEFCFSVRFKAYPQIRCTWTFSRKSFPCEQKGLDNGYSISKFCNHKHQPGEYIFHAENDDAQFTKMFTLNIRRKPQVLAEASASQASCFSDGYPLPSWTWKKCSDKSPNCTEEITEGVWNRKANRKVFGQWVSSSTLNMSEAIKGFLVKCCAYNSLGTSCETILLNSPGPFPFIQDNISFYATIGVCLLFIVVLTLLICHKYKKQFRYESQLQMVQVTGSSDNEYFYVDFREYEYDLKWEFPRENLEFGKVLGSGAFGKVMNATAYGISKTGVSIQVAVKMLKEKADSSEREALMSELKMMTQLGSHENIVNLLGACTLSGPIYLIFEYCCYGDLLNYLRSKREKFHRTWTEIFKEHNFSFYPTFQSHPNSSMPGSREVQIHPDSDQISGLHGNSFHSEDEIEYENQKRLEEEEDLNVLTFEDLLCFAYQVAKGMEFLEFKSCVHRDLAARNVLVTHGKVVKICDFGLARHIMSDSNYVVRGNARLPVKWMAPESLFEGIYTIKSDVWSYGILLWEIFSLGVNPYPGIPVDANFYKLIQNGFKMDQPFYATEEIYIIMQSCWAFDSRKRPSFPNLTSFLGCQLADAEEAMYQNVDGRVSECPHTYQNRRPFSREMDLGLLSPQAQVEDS
Summary of the method: as §1

[9] = target: T9, kinases (Homo sapiens, UniProt P42684); conditions: 1 μM; target ABL2
T9 construct: purchased Eurofins/DiscoveRx; host or cells: E. coli BL21-derived host (T7 phage display) for most kinases; HEK-293 for the rest
T9 sequence (P42684 whole entry): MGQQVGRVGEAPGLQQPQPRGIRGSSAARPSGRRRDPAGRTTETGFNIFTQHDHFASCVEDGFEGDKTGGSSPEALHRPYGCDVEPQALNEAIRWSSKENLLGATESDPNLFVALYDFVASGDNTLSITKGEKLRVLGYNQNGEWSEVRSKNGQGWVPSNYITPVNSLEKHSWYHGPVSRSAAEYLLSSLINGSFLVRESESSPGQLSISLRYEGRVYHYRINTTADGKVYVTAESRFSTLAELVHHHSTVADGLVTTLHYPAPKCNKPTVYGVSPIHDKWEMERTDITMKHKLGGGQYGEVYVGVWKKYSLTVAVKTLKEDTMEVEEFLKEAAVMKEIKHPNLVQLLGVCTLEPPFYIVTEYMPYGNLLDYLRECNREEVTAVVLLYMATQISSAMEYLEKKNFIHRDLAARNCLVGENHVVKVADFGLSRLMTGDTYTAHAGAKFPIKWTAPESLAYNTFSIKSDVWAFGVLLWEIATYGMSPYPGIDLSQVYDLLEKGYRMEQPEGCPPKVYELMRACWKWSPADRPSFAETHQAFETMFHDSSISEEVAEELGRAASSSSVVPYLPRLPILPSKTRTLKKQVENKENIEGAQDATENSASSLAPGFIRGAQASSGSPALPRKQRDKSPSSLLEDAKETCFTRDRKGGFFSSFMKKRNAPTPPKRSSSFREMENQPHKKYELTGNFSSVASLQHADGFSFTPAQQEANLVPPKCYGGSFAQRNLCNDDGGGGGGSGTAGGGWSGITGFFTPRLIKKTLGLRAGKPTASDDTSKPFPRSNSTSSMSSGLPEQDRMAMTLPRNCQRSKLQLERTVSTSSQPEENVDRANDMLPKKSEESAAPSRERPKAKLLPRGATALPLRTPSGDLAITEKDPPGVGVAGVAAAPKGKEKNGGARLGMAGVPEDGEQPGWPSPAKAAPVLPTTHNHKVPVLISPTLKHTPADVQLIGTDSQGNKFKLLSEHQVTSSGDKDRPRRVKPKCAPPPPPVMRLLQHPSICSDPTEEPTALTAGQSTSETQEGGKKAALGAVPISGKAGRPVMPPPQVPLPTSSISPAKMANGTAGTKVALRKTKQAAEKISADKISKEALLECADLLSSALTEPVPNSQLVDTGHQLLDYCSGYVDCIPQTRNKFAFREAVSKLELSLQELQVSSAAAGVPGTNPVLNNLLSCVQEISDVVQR
Summary of the method: as §1

[10] = tested on: kinases; conditions: 1 μM; for % Ctrl, EGFR(L747-E749del, A750P): target EGFR(L747-E749del, A750P); for % Ctrl, EGFR(L747-S752del, P753S): target EGFR(L747-S752del, P753S); for % Ctrl, EGFR(L747-T751del, Sins): target EGFR(L747-T751del, Sins); for % Ctrl, FLT3(ITD): target FLT3(ITD); for % Ctrl, FLT3(ITD, D835V): target FLT3(ITD, D835V); for % Ctrl, FLT3(ITD, F691L): target FLT3(ITD, F691L)
Summary of the method: as §1

SMILES	% Ctrl, ABL1(M351T)-phosphorylated [1]	% Ctrl, EGFR [2]	% Ctrl, RET [3]	% Ctrl, RET(M918T) [4]	% Ctrl, KIT(A829P) [5]	% Ctrl, KIT(L576P) [6]	% Ctrl, KIT(V559D) [7]	% Ctrl, FLT3(D835H) [8]	% Ctrl, ABL2 [9]	% Ctrl, EGFR(L747-E749del, A750P) [10]	% Ctrl, EGFR(L747-S752del, P753S) [10]	% Ctrl, EGFR(L747-T751del, Sins) [10]	% Ctrl, FLT3(ITD) [10]	% Ctrl, FLT3(ITD, D835V) [10]	% Ctrl, FLT3(ITD, F691L) [10]
Cc1cc2c([nH]1)/C=C1\C(=O)Nc3ccc(cc31)-c1c(noc1C(C)C)COCCN(C)C2=O [Ex. 161, [3a(4)Z]-9-methyl-16-(propan-2-yl)-10,11-dihydro-2H,13H-1,17-(ethanediylidene)[1,2]oxazolo[4,3-m]dipyrrolo[3,2-f:3′,4′-i][1,4]oxazacyclopentadecine-3,8(5H,9H)-dione]	81 % Ctrl	73 % Ctrl	97 % Ctrl	92 % Ctrl	95 % Ctrl	100 % Ctrl	92 % Ctrl	48 % Ctrl	87 % Ctrl	100 % Ctrl	80 % Ctrl	93 % Ctrl	85 % Ctrl	83 % Ctrl	82 % Ctrl
CN1CCOc2cc3c(cc2Cl)NC(=O)/C3=C\c2[nH]ccc2C(=O)N(C)CC1 [Ex. 164, [16a(17)Z]-19-chloro-2,5,8-trimethyl-5,6,7,8,9,10-hexahydro-12,14-(ethanediylidene)dipyrrolo[3,2-i:3′,4′-l][1,4,7]oxadiazacyclopentadecine-4,16(1H,15H)-dione]	0.3 % Ctrl	95 % Ctrl	0 % Ctrl	0 % Ctrl	33 % Ctrl	0.9 % Ctrl	6.9 % Ctrl	0.3 % Ctrl	2.3 % Ctrl	19 % Ctrl	47 % Ctrl	45 % Ctrl	0.9 % Ctrl	0.3 % Ctrl	1 % Ctrl
Cc1cc2c([nH]1)/C=C1\C(=O)Nc3ccc(cc31)-c1cnn(C)c1OCCCN(C)C2=O [Ex. 166, [3a(4)Z]-9,14-dimethyl-9,10,11,12-tetrahydro-14H-1,17-(ethanediylidene)pyrazolo[4,3-n]dipyrrolo[3,2-g:3′,4′-j][1,5]oxazacyclopentadecine-3,8(2H,5H)-dione]	3.1 % Ctrl	70 % Ctrl	7.1 % Ctrl	2.9 % Ctrl	28 % Ctrl	34 % Ctrl	54 % Ctrl	0.7 % Ctrl	51 % Ctrl	62 % Ctrl	98 % Ctrl	90 % Ctrl	0.3 % Ctrl	0.6 % Ctrl	0 % Ctrl
Cc1cc2c([nH]1)/C=C1\C(=O)Nc3cc(Cl)c(cc31)SCCOCCN(C)C2=O [Ex. 169, [16a(17)Z]-19-chloro-5-methyl-6,7,9,10-tetrahydro-1H-12,14-(ethanediylidene)dipyrrolo[3,4-g:2′,3′-j][1,4,13]oxathiazacyclopentadecine-4,16(5H,15H)-dione]	0.1 % Ctrl	42 % Ctrl	0 % Ctrl	0 % Ctrl	22 % Ctrl	0 % Ctrl	1.2 % Ctrl	0.1 % Ctrl	0.3 % Ctrl	44 % Ctrl	56 % Ctrl	30 % Ctrl	0.9 % Ctrl	0.4 % Ctrl	0.1 % Ctrl
Cc1cc2c([nH]1)/C=C1\C(=O)Nc3cnc(cc31)-c1cnn(C)c1CN(C)CCN(C)C2=O [Ex. 172, [3a(4)Z]-6,9,12,14-tetramethyl-9,10,11,12,13,14-hexahydro-17,1-(azenometheno)pyrazolo[4,3-m]dipyrrolo[3,2-f:3′,4′-i][1,4]diazacyclopentadecine-3,8(2H,5H)-dione]	0.4 % Ctrl	36 % Ctrl	3.1 % Ctrl	0.8 % Ctrl	31 % Ctrl	16 % Ctrl	42 % Ctrl	4.2 % Ctrl	4.2 % Ctrl	62 % Ctrl	52 % Ctrl	43 % Ctrl	1.1 % Ctrl	0.3 % Ctrl	0.3 % Ctrl

Source: patent publication US20230257396A1, “MACROCYCLES AND THEIR USE” (BLOSSOMHILL THERAPEUTICS, INC., priority 2020, published 2023)
